Laboratory results reported in patent publication US20260191196A1, “COMPOSITIONS AND METHODS FOR IMPROVING SOIL MICROBIAL POPULATIONS” (SYNGENTA CROP PROTECTION AG, priority 2022, published 2026).

Assays:
[1] = system: arbuscular mycorrhizae fungi; assay: Mycorrhization in soybean roots after seed treatment; type: in vivo; settings: Glycine max; soybean variety Toliman, seed treatment 0.15 mg ai/seed, mycorrhizal inoculant Blend A; relative to control; read-out: [%] arbuscular mycorrhizae fungi colonization vs. control.
Description: Soybeans of variety Toliman were treated with 0.15 mg ai/seed of cyclobutrifluram and analogues, and planted in 1.5 L pots of 0-3 mm sieved soil. The seeds were inoculated with Bradyrhizobium japonicum using a commercially available product for soybeans.
In a first series, for each active ingredient tested, 15 replicate pots were sowed. In each pot, 3 seeds were sowed. After germination, 2 seedling was removed from each pot to a final number of 1 plant per pot. Each pot was inoculated with a small amount of a mycorrhizal inoculant (Blend A, commercially available from Symbiom, Czech Republic). The plants were grown in a greenhouse for 81 days under the following conditions: Humidity at 45-64%, Temperature of 22° C. to 24° C., in a 16/8 hour day/night cycle. In a further test series, Soybeans seeds treated as outlined above were then planted in 1 Lpots of 0-3 mm sieved soil. For each active ingredient, 8 replicate pots were sowed, whereby in each pot, 3 seeds were sowed. After germination, 2 seedlings were removed from each pot to a final number of 1 plant per pot.
The plants were then grown in a growth chamber for 42 days with the following conditions: Temperature of 20° C. and with a 12/12 hour day/night.
After harvest, the percent mycorrhization was quantified using the methods of McGonigle et al. (T. P. McGONIGLE, M. H. MILLER and D. G. EVANS et al., “A new method which gives an objective measure of colonization of roots by vesicular-arbuscular mycorrhizal fungi”. New Phytol. Vol. 115 (3): 495-501.).

[2] = system: bacteria (16S) and fungi (ITS) communities; assay: Potato field trial: soil microbiome community and biodiversity; type: in vivo, potato (Solanum tuberculosum L.)
Description: In this experiment, assuming that biodiversity can be measured by the taxonomic richness and abundance of each taxon, the differences between treatments are determined and their effect on populations and beneficial species over time is verified. This leads to testing two hypotheses. Firstly, there is an impact of cyclobutrifluram applications on microbial diversity. Secondly, the use of cyclobutrifluram improves beneficial microbial diversity over time. These hypotheses were tested in two potato farms in the USA.
The experiment was carried out in two potato (Solanum tuberculosum L.) fields located in two test locations in Louisiana, USA, described as locations A and B in Table 2. In each experimental field, three products were tested in an area of 10 m^2 (Table 3) and three replicates per product were established by complete block randomized. To evaluate the effects on the microbiome a “Check” plot (untreated) was established. In addition, fluopyram was employed as a comparative example. Fluopyram is a widely used fungicide and nematicide, and represents the industry standard herein.
To analyse the microbial biodiversity, three soil samples were taken per treatment and each sample consisted of soil collected from three different points within the plots. In this way, the effect of soil variability was minimized, since there were nine samples per treatment. […]
As set out above, to detect microbial community modifications in the soil microbiome associated with the cyclobutrifluram treatment, PCR amplification and successive high-throughput sequencing of bacterial and fungal taxonomical marker genes (the small-subunit ribosomal RNA gene (16S) and the ribosomal internal transcribed spacers (ITS) respectively) were performed on plant-associated soil samples. An exploratory data analysis was conducted to describe the microbial biodiversity and the behaviour of the percentage of the abundance of species under the evaluated factors. […]

SMILES | response vs control in vivo at 0.15 mg/seed [1] [%] | beneficial effect on soil microbiome [2] | impact on plant-pathogenic microbes ([2]; 250 gai/ha)
O=C(N[C@H]1CC[C@H]1c1ccc(F)cc1F)c1nccnc1C(F)(F)F [Compound A1] | 61 |  | 
O=C(NCCc1ncc(C(F)(F)F)cc1Cl)c1ccccc1C(F)(F)F [fluopyram] |  | did not show any beneficial effect | showed an impact in promoting in particular plant-pathogenic microbes
O=C(N[C@H]1CC[C@H]1c1ccc(F)cc1Cl)c1ncccc1C(F)(F)F [Compound A3] | 84 |  | 
O=C(N[C@H]1CC[C@H]1c1ccc(F)cc1F)c1ncccc1C(F)(F)F [Compound A4] | 67 |  | 
O=C(N[C@@H]1CO[C@@H]1c1ccc(F)cc1F)c1nccnc1C(F)(F)F (racemic) [Compound A5] | 81 |  | 
O=C(N[C@@H]1CO[C@@H]1c1ccc(Cl)cc1Cl)c1nccnc1C(F)(F)F (racemic) [Compound A6] | 97 |  | 
O=C(N[C@H]1CC[C@H]1c1ccc(F)cc1Cl)c1cccnc1C(F)(F)F [Compound A2] | 72 |  | 
O=C(N[C@@H]1CO[C@@H]1c1ccc(Cl)cc1Cl)c1cccnc1C(F)(F)F (racemic) [Compound A7] | 76 |  | 
